Residue numbers refer to the chain shown, from its start.

Experiment [1] deals with T1, Dahl S Dear S44/M74 variant (Rattus norvegicus, UniProt D3ZGZ6, F4L).
T1 construct: expressed in transfected cells; host or cells: Cos1 cells (membranes), pcDNA expression vector
T1 sequence (D3ZGZ6 1-127 F4L): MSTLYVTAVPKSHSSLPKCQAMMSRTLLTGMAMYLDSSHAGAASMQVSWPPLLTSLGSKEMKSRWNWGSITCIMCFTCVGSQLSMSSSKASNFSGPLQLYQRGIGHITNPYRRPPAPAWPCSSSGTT
Put plainly: West-western blot of kidney and Cos1 cell membranes (labeled ligand on protein blot). It counts as binding. As to conditions: Dahl S kidney membranes (Kid-S) and Cos1-S membranes. Here is the method: (§1) A polyclonal rabbit antipeptide antibody raised against the synthetic peptide P51LLTSLGSKE60 (SEQ. ID. NO. 7) was utilized for western blot analysis (1). Plasma membranes (40 μg protein/lane) were subjected to 12.5% SDS-PAGE and the separated proteins electro-transferred onto PVDF membranes which were incubated with blocking buffer (0.3% Tween-20, 5% non-fat milk, 137 mM NaCl, 2.7 mM KCl, 8.1 mM Na2HPO4, and 1.5 mM KH2PO4, pH7.4) for 2 hr at room temperature, and then incubated with primary antibody (1:500) for 16 hr at 4° C. The PVDF membranes were then sequentially incubated with biotinylated goat anti-rabbit IgG followed by immunostaining with horseradish peroxidase-linked streptavidin. To confirm the interaction between Dear and ligands, we performed west-western blot analysis (62). Briefly, protein blots of kidney and COS-1 cell membranes were incubated with radioligands (0.5 μCi in 10 ml) in buffer A at 37° C. for 16 hr. PVDF membranes were then washed three times for 15 min with buffer A at 37° C. and exposed to X-ray film at −80° C. for 1-3 days.

The target of experiment [2] is T2, Dahl R Dear S44P/M74T variant (Rattus norvegicus, UniProt D3ZGZ6, F4L/M74T/S44P).
T2 construct: expressed in transfected cells; host or cells: Cos1 cells (membranes), pcDNA expression vector
T2 sequence (D3ZGZ6 1-127 F4L/S44P/M74T): T1 sequence (D3ZGZ6 1-127 F4L) with S44P, M74T
The experiment is described as above. It counts as binding. The following applies: Dahl R kidney membranes (Kid-R) and Cos1-R membranes. Here is the method:
as §1

The target of experiment [3] is T2, Dahl R Dear S44P/M74T variant. Put plainly: Radioligand binding to Dahl R Dear expressed in Cos1 cell membranes. The following applies: for hormone binding (direct radioligand binding), in words: Dahl R Dear transiently expressed in Cos1 cells. Here is the method:
(§2) The Dahl S and Dahl R Dear cDNAs were subcloned directionally (5′ to 3′) into the pcDNA (+) expression vector (Invitrogen, Carlsbad, Calif.) and transiently expressed in Cos1 cells (ATCC). Cos1 cells were transfected with the expression vectors via lipofectin-mediated gene transfer and cell membranes were isolated 72 hr post-transfection for hormone binding. Rat kidney membranes were prepared essentially as described (42). COS-1 cell membranes were isolated as described (36). Briefly, cells were washed twice in phosphate-buffered saline and homogenized in 10-fold ice-cold buffer (0.25 M sucrose, 1 mM EDTA, 50 μg/ml aprotinin, 10 μg/ml leupeptin, 100 μM phenylmethylsulfonyl fluoride, 25 mM Imidazol/HCl, pH 7.4). The homogenate was centrifuged at 5,000 g for 15 min and the pellet was discarded. The supernatant was then centrifuged at 27,500 g for 30 min and the resulting pellet was washed twice in ice-cold suspension buffer (5 mM MgCl2, 0.2 mM EDTA, 50 mM Hepes, pH 7.4). The final pellet was resuspended into the appropriate assay buffer and quickly frozen in liquid nitrogen. The membrane preparations were store at −80° C. until use. Protein concentrations of the membranes were determined by BCA protein assay kit (PIERCE).
(§3) Binding of [^125I]Tyr^4-angiotensin II and [^125I]Tyr^13-endothelin-1 to COS-1 membranes was performed by a rapid filtration method (32, 50). Briefly, [^125I]Tyr^4-angiotensin II ([…]) or [^125I]Tyr^13-endothelin-1 (0.045˜1.46 nM) was incubated with membranes (100 μg) for 20 min at 37° C. in 100 μl buffer A (5 mM MgCl2, 0.2 mM EDTA, 10 mg/ml BSA, 10 mM Hepes, pH7.4). Binding reactions were terminated by the addition of 1 ml ice-cold buffer A and immediately filtered through a Whatman GF/C filter (presoaked overnight at 4° C. in 10 mg/ml BSA) and subsequently washed with 15 ml ice-cold buffer A. Specific binding was determined as the difference between the total radioactivity bound to membranes and the radioactivity bound to blanks containing 1 μM AngII or 1 μM ET-1. The dissociation constant (Kd) and maximum ligand-binding sites (Bmax) were determined using Hill plot analysis (55). Hill coefficient values (h) were calculated from the relationship ln [B/(Bmax−B)]=h ln [free Radioligand]−ln Kd. An F test (P<0.05) was used to determine whether the saturation binding curves best fitted one or two independent binding sites. The data were best fit by two affinity states determined by Scatchard plot analysis; KH and KL designate the Kd for high- and low-affinity states of the receptor, respectively (44). Most results are expressed as the mean±SE (standard error) from three to five independent experiments.

The target in experiment [4] is T1, Dahl S Dear S44/M74 variant. Put plainly: Radioligand binding to Dahl S Dear expressed in Cos1 cell membranes. The following applies: for hormone binding, in words: Dahl S Dear transiently expressed in Cos1 cells; for Bmax / h (Hill coefficient): S44/M74 variant, mean ± s.e.m. The procedure: as §2, §3
The target in a further experiment is T3, mouse Dear (Mus musculus, UniProt Q2QKR2).
T3 construct: The mouse receptor polypeptide contains 127 amino acids showing 78 percent homology with the rat receptor; expressed in transfected cells; host or cells: Cos-1 cells (membranes)
T3 sequence (Q2QKR2 1-127): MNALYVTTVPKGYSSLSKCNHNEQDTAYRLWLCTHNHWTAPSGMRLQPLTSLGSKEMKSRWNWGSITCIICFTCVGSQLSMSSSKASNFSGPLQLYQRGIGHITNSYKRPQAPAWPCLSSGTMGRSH
Briefly: Ligand binding to mouse Dear expressed in Cos-1 cells. As to conditions: mouse receptor polypeptide, data not shown. The procedure: Mouse Dear cDNA was obtained by RT-PCR from C57BL/6 mouse kidney PolyA^+ RNA (forward primer, 5′-[…]-3′ (SEQ. ID. NO. 13); reverse primer, 5′-[…]-3′(SEQ. ID. NO. 14)), subcloned into the PT-vector system (Clontech, Palo Alto, Calif.) and then sequenced (GenBank accession no. DQ009865). RNA blot analysis was done as described (1) using PolyA^+ RNA (3 μg), γ-^32P end labeled anti-sense mouse Dear oligonucleotide (5′-[…]-3′(SEQ. ID. NO. 15)) as probe. Receptor expression studies, ^125I-ET-1-1 and ^125I-AngII binding to membranes were done as described (2).

Setting [5] is: [125I]Tyr13-Endothelin I, S44P/M74T variant, mean ± s.e.m.

Take `CC[C@H](C)[C@H](NC(=O)[C@H](CC(=O)O)NC(=O)[C@H](CC(C)C)NC(=O)[C@H](Cc1c[nH]cn1)NC(=O)[C@@H]1CSSC[C@H](N)C(=O)N[C@@H](CO)C(=O)N[C@H]2CSSC[C@H](NC(=O)[C@H](CCC(=O)O)NC(=O)[C@H](CCCCN)NC(=O)[C@H](CC(=O)O)NC(=O)[C@H](CCSC)NC(=O)[C@H](CC(C)C)NC(=O)[C@H](CO)NC(=O)[C@H](CO)NC2=O)C(=O)N[C@@H](C(C)C)C(=O)N[C@@H](Cc2ccc(O)c(I)c2)C(=O)N[C@@H](Cc2ccccc2)C(=O)N1)C(=O)N[C@H](C(=O)N[C@@H](Cc1c[nH]c2ccccc12)C(=O)O)[C@@H](C)CC` [[^125I]Tyr^13-Endothelin I]: the “binding in west-western blot analysis” value in experiment [1] and in experiment [2] was “reveals binding” each time. Further, the “hormone binding (direct radioligand binding), in words” value in experiment [3] is “exhibit normal ET-1 binding”. Also, the results for the Bmax in experiment [3] (setting [5]) and in experiment [4] ([125I]Tyr13-Endothelin I) were 20.21 ± 1.59 pmol/mg membrane protein and 26.25 ± 1.29 pmol/mg membrane protein, respectively. Besides, the “h (Hill coefficient)” value came to 1.45 ± 0.09 in experiment [3] (setting [5]) and 1.41 ± 0.12 in experiment [4] ([125I]Tyr13-Endothelin I). Besides, in experiment [4], the “hormone binding, in words” value was “binding both ET-1 and AngII”. For the same compound, the “increased affinity for ET-1, Dahl S variant compared to Dahl R variant” value in experiment [4] (KH, S44/M74 vs Dahl R variant) was found to be 3 fold. Further, the “ligand binding, in words” value at mouse Dear is reported as “binds solely ET-1”.
In the case of `CC[C@H](C)[C@H](NC(=O)[C@H](Cc1ccc(O)c(I)c1)NC(=O)[C@@H](NC(=O)[C@H](CCCNC(=N)N)NC(=O)[C@@H](N)CC(=O)O)C(C)C)C(=O)N[C@@H](Cc1c[nH]cn1)C(=O)N1CCC[C@H]1C(=O)N[C@@H](Cc1ccccc1)C(=O)O` [[^125I]Tyr^4-Angiotensin II], the results for the “binding in west-western blot analysis” value in experiment [1] and in experiment [2] were “detects binding” and “binding only to Dahl S kidney membranes”, respectively. In addition, the “hormone binding (direct radioligand binding), in words” value in experiment [3] is reported as “do not exhibit AngII binding”. Further, the Bmax result is given as “no binding” in experiment [3] ([125I]Tyr4-Angiotensin II, S44P/M74T variant, Cos1 membranes) and 23.6 ± 0.92 pmol/mg membrane protein in experiment [4] ([125I]Tyr4-Angiotensin II, Cos1 membranes). In addition, in experiment [4], the “hormone binding, in words” value is “binding both ET-1 and AngII”. Moreover, the “h (Hill coefficient)” value in experiment [4] ([125I]Tyr4-Angiotensin II) is given as 2.63 ± 0.25.

For the origin of these results see patent US7919093B2, “Roles for dual endothelin-1/angiotensin II receptor (Dear) in hypertension and angiogenesis” (Trustees of Boston University, priority 2004, dated 2011).
